The values below come from patent US9718813B2, “Imidazolin-5-one derivative useful as FASN inhibitors for the treatment of cancer” (Janssen Pharmaceutica, NV, priority 2013, dated 2017).

For assay [1], the target named is hFASN enzyme (full length) (Homo sapiens (Human), UniProt P49327). As to the kind of experiment: Fatty Acid Synthase (FASN) Inhibition Scintillation Proximity Assay. The class given is biochemical. Particulars: 3H-acetyl-CoA and malonyl-CoA substrates, SPA, mean if tested more than once; for IC50: read-out: Human FASN pIC50 (converted). Here is the method:
In this assay, inhibition of FASN activity is measured using ^3H-acetyl-CoA and malonyl-CoA as substrates. ^3H-Acetyl CoA is converted to ^3H-palmitate through a series of reactions by the FASN protein, which contains 7 functional domains and carries out 7 enzymatic reactions to ultimately produce ^3H-palmitate. The assay principle is based upon the fact that ^3H-acetyl-CoA is hydrophilic and the end product, ^3H-palmitate is hydrophobic.
10 μL assay buffer (100 mM KH2PO4 pH 7.5, 1 mM DTT) (20 μL in blanks) was added to a 384-well white Opti Plate plate (Perkin Elmer). 0.9 μL test compound (at concentrations of 30 μM, 10 μM, 3 μM, 1 μM, 0.30 μM, 0.10 μM, 0.03 μM and 0.01 μM)/DMSO and 10 μL hFASN enzyme (full length, 300 ng, purified in house) or 10 μL assay buffer was added to the wells. […] The reaction was stopped by adding 20 μL Streptavidin coupled imaging beads (25 mg/ml). After incubation for 30 minutes at room temperature in the dark, the 384 well plate was centrifuged at 1500 rpm for 3 minutes and was measured after at least 24 hrs by the LEADseeker™, measuring emission using a 610±20 nm pass filter.
(§1) Raw data generated by the instrument were normalized to % Controlmin values, which were calculated as: % Controlmin=100*(x−mLC)/(mHC−mLC)
(§2) where mLC and mHC were the means of the low control wells and high control wells on the plate, after manual exclusion of outliers. A plot of Controlmin versus test compound concentration was fitted to a 4-parameter logistic curve using a non-linear least squares regression method.
In general terms: In a scintillation proximity assay essentially only radioactivity close to the scintillant gives light.

Assay [2] deals with FASN Keto-reductase Domain (hFASN enzyme, full length) (Homo sapiens (Human), UniProt P49327). As to the kind of experiment: Fatty Acid Synthase Keto-reductase Domain (FASN KR) Inhibition. The assay is classed as biochemical. As to conditions: NADPH oxidation at 340 nm, ethyl acetoacetate substrate; for IC50: read-out: FASN Keto-reductase Domain pIC50 (converted). Here is the method: After 20 minutes incubation at room temperature the plate was measured again (T2).
Sequence of FASN Keto-reductase Domain (hFASN enzyme, full length) (P49327 whole entry, the tested form may be a part): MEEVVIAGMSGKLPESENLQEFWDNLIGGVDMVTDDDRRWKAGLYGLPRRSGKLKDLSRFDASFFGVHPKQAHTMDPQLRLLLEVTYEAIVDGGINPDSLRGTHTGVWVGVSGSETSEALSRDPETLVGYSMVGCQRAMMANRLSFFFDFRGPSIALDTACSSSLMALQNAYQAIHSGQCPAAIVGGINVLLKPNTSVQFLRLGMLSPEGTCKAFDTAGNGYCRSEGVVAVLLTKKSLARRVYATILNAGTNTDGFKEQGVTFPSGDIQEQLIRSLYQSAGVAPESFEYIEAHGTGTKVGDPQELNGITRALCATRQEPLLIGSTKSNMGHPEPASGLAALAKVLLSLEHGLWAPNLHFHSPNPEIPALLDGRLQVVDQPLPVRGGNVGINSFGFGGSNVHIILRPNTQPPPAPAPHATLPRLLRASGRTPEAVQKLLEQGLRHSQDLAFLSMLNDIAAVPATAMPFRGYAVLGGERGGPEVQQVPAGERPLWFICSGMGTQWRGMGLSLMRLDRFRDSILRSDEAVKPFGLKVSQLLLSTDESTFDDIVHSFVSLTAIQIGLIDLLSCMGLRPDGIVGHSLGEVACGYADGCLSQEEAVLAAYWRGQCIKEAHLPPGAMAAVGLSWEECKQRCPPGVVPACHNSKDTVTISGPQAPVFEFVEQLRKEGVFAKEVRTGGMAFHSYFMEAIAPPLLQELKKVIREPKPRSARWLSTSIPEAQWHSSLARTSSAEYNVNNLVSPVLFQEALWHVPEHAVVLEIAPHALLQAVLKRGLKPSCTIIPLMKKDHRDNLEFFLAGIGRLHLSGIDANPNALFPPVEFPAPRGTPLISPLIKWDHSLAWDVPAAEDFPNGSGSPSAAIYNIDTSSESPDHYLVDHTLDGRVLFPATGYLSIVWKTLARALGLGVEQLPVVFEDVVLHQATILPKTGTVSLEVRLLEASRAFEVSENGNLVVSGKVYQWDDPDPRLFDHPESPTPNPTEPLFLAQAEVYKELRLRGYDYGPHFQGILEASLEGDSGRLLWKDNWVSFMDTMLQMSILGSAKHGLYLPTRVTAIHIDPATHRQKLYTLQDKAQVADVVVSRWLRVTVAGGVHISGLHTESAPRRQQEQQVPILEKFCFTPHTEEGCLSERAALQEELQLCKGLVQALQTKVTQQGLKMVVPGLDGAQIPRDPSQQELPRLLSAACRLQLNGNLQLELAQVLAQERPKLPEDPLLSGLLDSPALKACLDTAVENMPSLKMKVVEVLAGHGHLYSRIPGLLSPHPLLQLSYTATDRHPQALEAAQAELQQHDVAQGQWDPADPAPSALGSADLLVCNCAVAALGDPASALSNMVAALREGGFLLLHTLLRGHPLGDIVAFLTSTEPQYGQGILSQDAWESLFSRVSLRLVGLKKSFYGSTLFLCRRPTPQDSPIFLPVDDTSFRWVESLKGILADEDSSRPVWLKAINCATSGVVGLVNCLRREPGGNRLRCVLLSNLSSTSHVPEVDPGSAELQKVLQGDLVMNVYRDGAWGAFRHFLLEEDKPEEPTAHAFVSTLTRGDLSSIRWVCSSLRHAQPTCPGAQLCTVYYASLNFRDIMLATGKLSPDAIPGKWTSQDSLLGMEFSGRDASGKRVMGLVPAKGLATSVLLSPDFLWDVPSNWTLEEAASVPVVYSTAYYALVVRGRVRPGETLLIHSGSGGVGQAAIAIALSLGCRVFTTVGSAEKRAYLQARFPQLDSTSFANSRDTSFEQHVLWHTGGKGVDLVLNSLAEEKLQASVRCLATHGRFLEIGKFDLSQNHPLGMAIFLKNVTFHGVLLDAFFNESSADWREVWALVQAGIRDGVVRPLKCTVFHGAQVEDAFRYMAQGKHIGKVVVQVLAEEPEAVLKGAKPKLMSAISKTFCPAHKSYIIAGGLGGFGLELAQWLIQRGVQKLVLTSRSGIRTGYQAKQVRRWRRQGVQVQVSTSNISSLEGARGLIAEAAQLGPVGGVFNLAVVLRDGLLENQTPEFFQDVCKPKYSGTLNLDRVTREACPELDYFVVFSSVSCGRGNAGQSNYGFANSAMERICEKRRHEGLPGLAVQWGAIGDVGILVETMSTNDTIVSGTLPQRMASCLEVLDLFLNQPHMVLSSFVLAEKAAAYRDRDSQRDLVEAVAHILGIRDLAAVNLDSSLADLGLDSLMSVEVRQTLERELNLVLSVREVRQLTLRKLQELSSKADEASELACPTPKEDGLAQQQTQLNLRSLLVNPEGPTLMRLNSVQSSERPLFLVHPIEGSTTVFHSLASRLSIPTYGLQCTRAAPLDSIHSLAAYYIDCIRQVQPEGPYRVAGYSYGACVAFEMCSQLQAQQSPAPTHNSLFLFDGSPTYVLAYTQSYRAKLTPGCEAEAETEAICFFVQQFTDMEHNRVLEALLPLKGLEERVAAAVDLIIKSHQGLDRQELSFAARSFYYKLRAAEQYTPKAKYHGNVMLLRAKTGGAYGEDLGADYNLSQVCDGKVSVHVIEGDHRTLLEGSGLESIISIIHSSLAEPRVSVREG
The decrease in absorbance was calculated as (Absorbance before incubation T1)−(Absorbance following incubation T2).
as §1, §2

Sequence of hFASN enzyme (full length) (P49327 whole entry, the tested form may be a part): as above

For the molecule `Cc1cc(-c2ccc3c(cnn3C)c2)ccc1C1=NC(C)(C)C(=O)N1C[C@@H]1CCN(C(=O)C2(C)CC2)C1` [Compound 80, (R)-4,4-dimethyl-2-(2-methyl-4-(1-methyl-1H-indazol-5-yl)phenyl)-1-((1-(1-methylcyclopropanecarbonyl)pyrrolidin-3-yl)methyl)-1H-imidazol-5(4H)-one], the “Human FASN pIC50” value in assay [1] is recorded as 7.20. Also, the “FASN Keto-reductase Domain pIC50” value in assay [2] is given as 6.96.
As for `Cn1ncc2cc(-c3ccc(C4=NC(C)(C)C(=O)N4C[C@@H]4CCN(C(=O)C5(C)CC5)C4)c(F)c3)ccc21` [Compound 73, (R)-2-(2-fluoro-4-(1-methyl-1H-indazol-5-yl)phenyl)-4,4-dimethyl-1-((1-(1-methylcyclopropanecarbonyl)pyrrolidin-3-yl)methyl)-1H-imidazol-5(4H)-one], the “Human FASN pIC50” value in assay [1] was 7.18. Besides, in assay [2], the “FASN Keto-reductase Domain pIC50” value is given as 7.17.
With `CC1(C)N=C(c2ccc(-c3ccc(-c4ccncc4)cc3)cc2)N(CC2CN(C(=O)C3CC3)C2)C1=O` [Compound 26, 1-((1-(cyclopropanecarbonyl)azetidin-3-yl)methyl)-4,4-dimethyl-2-(4′-(pyridin-4-yl)-[1,1′-biphenyl]-4-yl)-1H-imidazol-5(4H)-one], the “Human FASN pIC50” value in assay [1] is recorded as around 6.22. Further, the “FASN Keto-reductase Domain pIC50” value in assay [2] amounted to 6.08.
Taken in the same sequence, the figures for `CC1(C)N=C(c2ccc(-c3cccc4ncccc34)cc2)N(C[C@@H]2CCN(C(=O)C3CC3)C2)C1=O` [Compound 31, (R)-1-((1-(cyclopropanecarbonyl)pyrrolidin-3-yl)methyl)-4,4-dimethyl-2-(4-(quinolin-5-yl)phenyl)-1H-imidazol-5(4H)-one] were 6.72 and 6.33.
Take `CC1(C)N=C(c2ccc(-c3ccc4cc(F)ccc4c3)cc2F)N(CC2CN(C(=O)C3(O)CC3)C2)C1=O` [Compound 79, 2-(2-fluoro-4-(6-fluoronaphthalen-2-yl)phenyl)-1-((1-(1-hydroxycyclopropanecarbonyl)azetidin-3-yl)methyl)-4,4-dimethyl-1H-imidazol-5(4H)-one]: in assay [1], the “Human FASN pIC50” value is reported as 7.52. The “FASN Keto-reductase Domain pIC50” value in assay [2] is reported as 6.92.
In the case of `Cn1ncc2cc(-c3ccc(C4=NC(C)(C)C(=O)N4C[C@@H]4CCN(C(=O)C5CC5)C4)cc3)ccc21` [Compound 2, (R)-1-((1-(cyclopropanecarbonyl)pyrrolidin-3-yl)methyl)-4,4-dimethyl-2-(4-(1-methyl-1H-indazol-5-yl)phenyl)-1H-imidazol-5(4H)-one], the “Human FASN pIC50” value in assay [1] came out at 6.85. Besides, the “FASN Keto-reductase Domain pIC50” value in assay [2] was 6.15.
Consider `CC1(C(=O)N2CC(CN3C(=O)C(C)(C)N=C3c3ccc(-c4ccc5cc(F)ccc5c4)cc3F)C2)CC1` [Compound 72, 2-(2-fluoro-4-(6-fluoronaphthalen-2-yl)phenyl)-4,4-dimethyl-1-((1-(1-methylcyclopropanecarbonyl)azetidin-3-yl)methyl)-1H-imidazol-5(4H)-one], for which the “Human FASN pIC50” value in assay [1] worked out at 7.45. Further, the “FASN Keto-reductase Domain pIC50” value in assay [2] came to 7.23.
Turning to `Cn1cc(-c2ccc(-c3ccc(C4=NC(C)(C)C(=O)N4CC4CN(C(=O)C5CC5)C4)c(F)c3)cc2)cn1` [Compound 33, 1-((1-(cyclopropanecarbonyl)azetidin-3-yl)methyl)-2-(3-fluoro-4′-(1-methyl-1H-pyrazol-4-yl)-[1,1′-biphenyl]-4-yl)-4,4-dimethyl-1H-imidazol-5(4H)-one], the “Human FASN pIC50” value in assay [1] was found to be 6.74. The “FASN Keto-reductase Domain pIC50” value in assay [2] amounted to 6.38.
In the case of `CC1(C)N=C(c2ccc(-c3ccc(-c4ccncc4)cc3)cc2F)N(C[C@@H]2CCN(C(=O)C3CC3)C2)C1=O` [Compound 46, (R)-1-((1-(cyclopropanecarbonyl)pyrrolidin-3-yl)methyl)-2-(3-fluoro-4′-(pyridin-4-yl)-[1,1′-biphenyl]-4-yl)-4,4-dimethyl-1H-imidazol-5(4H)-one], the “Human FASN pIC50” value in assay [1] was found to be 7.28. In assay [2], the “FASN Keto-reductase Domain pIC50” value is 6.90.
The matching figures for `CC1(C)N=C(c2ccc(-c3nc4ccccc4o3)cc2F)N(CC2CN(C(=O)C3CC3)C2)C1=O` [Compound 52, 2-(4-(benzo[d]oxazol-2-yl)-2-fluorophenyl)-1-((1-(cyclopropanecarbonyl)azetidin-3-yl)methyl)-4,4-dimethyl-1H-imidazol-5(4H)-one]: 6.25 and 5.77.
The matching figures for `CC1(C)N=C(c2ccc(-c3ccc4cccnc4c3)cc2F)N(C[C@@H]2CCN(C(=O)C3CC3)C2)C1=O` [Compound 49, (R)-1-((1-(cyclopropanecarbonyl)pyrrolidin-3-yl)methyl)-2-(2-fluoro-4-(quinolin-7-yl)phenyl)-4,4-dimethyl-1H-imidazol-5(4H)-one]: 7.34 and 7.20.
For `CC1(C)N=C(c2ccc(-c3n[nH]c4ccccc34)cc2F)N(C[C@@H]2CCN(C(=O)C3CC3)C2)C1=O` [Compound 57, (R)-1-((1-(cyclopropanecarbonyl)pyrrolidin-3-yl)methyl)-2-(2-fluoro-4-(1H-indazol-3-yl)phenyl)-4,4-dimethyl-1H-imidazol-5(4H)-one], in assay [1], the “Human FASN pIC50” value was 6.48. Moreover, in assay [2], the “FASN Keto-reductase Domain pIC50” value turned out to be 5.56.
As to `Cc1cc(-c2ccc3c(c2)ncn3C)ccc1C1=NC(C)(C)C(=O)N1C[C@@H]1CCN(C(=O)C2(C)CC2)C1` [Compound 85, (R)-4,4-dimethyl-2-(2-methyl-4-(1-methyl-1H-benzo[d]imidazol-5-yl)phenyl)-1-((1-(1-methylcyclopropanecarbonyl)pyrrolidin-3-yl)methyl)-1H-imidazol-5(4H)-one], in assay [1], the “Human FASN pIC50” value amounted to 7.10. Also, the “FASN Keto-reductase Domain pIC50” value in assay [2] was 6.80.
Regarding `COCC1(C)N=C(c2ccc(-c3ccc4occc4c3)cc2)N(C[C@@H]2CCN(C(=O)C3CC3)C2)C1=O` (mixture of isomers) [Compound 8, (4RS)-2-(4-(Benzofuran-5-yl)phenyl)-1-(((R)-1-(cyclopropanecarbonyl)pyrrolidin-3-yl)methyl)-4-(methoxymethyl)-4-methyl-1H-imidazol-5(4H)-one], the results for the IC50 in assay [1] and in assay [2] were 240 nM and 389 nM, respectively.
Take `CC1(C2CC2)N=C(c2ccc(-c3ccc4occc4c3)cc2)N(C[C@@H]2CCN(C(=O)C3CC3)C2)C1=O` (mixture of isomers) [Compound 9, (4RS)-2-(4-(Benzofuran-5-yl)phenyl)-1-(((R)-1-(cyclopropanecarbonyl)pyrrolidin-3-yl)methyl)-4-cyclopropyl-4-methyl-1H-imidazol-5(4H)-one]: the IC50 in assay [1] is 331 nM; in assay [2] it was 603 nM.
For `CC1(C)N=C(c2ccc(-c3ccc4cnccc4c3)cc2)N(CC2CN(C(=O)C3CC3)C2)C1=O` [Compound 27, 1-((1-(cyclopropanecarbonyl)azetidin-3-yl)methyl)-2-(4-(isoquinolin-6-yl)phenyl)-4,4-dimethyl-1H-imidazol-5(4H)-one], the “Human FASN pIC50” value in assay [1] is recorded as 6.72. In assay [2], the “FASN Keto-reductase Domain pIC50” value came to 6.41.
`CC1(C)N=C(c2ccc(-c3ccc4ncccc4c3)cc2F)N(C[C@@H]2CCN(C(=O)C3CC3)C2)C1=O` [Compound 37, (R)-1-((1-(cyclopropanecarbonyl)pyrrolidin-3-yl)methyl)-2-(2-fluoro-4-(quinolin-6-yl)phenyl)-4,4-dimethyl-1H-imidazol-5(4H)-one]: the “Human FASN pIC50” value in assay [1] came to 5.86.
`Cc1cc(-c2ccc3c(c2)ncn3C)ccc1C1=NC(C)(C)C(=O)N1C[C@@H]1CCN(C(=O)C2(O)CC2)C1` [Compound 92, (R)-1-((1-(1-hydroxycyclopropanecarbonyl)pyrrolidin-3-yl)methyl)-4,4-dimethyl-2-(2-methyl-4-(1-methyl-1H-benzo[d]imidazol-5-yl)phenyl)-1H-imidazol-5(4H)-one]: the “Human FASN pIC50” value in assay [1] came out at 7.04.
For the molecule `CC1(C)N=C(c2ccc(-c3n[nH]c4ccccc34)cc2)N(CC2CN(C(=O)C3CC3)C2)C1=O` [Compound 99, 2-(4-(1H-indazol-3-yl)phenyl)-1-((1-(cyclopropanecarbonyl)azetidin-3-yl)methyl)-4,4-dimethyl-1H-imidazol-5(4H)-one], the “Human FASN pIC50” value in assay [1] is 5.26.
For the molecule `Cn1cnc2cc(-c3ccc(C4=NC(C)(C)C(=O)N4C[C@@H]4CCN(C(=O)C5(C)CC5)C4)c(F)c3)ccc21` [Compound 90, (R)-2-(2-fluoro-4-(1-methyl-1H-benzo[d]imidazol-5-yl)phenyl)-4,4-dimethyl-1-((1-(1-methylcyclopropanecarbonyl)pyrrolidin-3-yl)methyl)-1H-imidazol-5(4H)-one], in assay [1], the “Human FASN pIC50” value amounted to 7.10.
